BigSolDB 2.1

NCCCCCC(=O)O
solubility (mole fraction)
Conditions	283.15 K	288.15 K	293.15 K	298.15 K	303.15 K	308.15 K	313.15 K	318.15 K	323.15 K
in ethyl acetate	0.000146	0.00016	0.000174	0.000188	0.0002	0.000221	0.000241	0.000262	0.000289
in isopropanol	7.7e-05	8.1e-05	9.2e-05	0.000108	0.000123	0.000142	0.000162	0.000181	0.0002
in methyl acetate	0.000119	0.000129	0.00014	0.000146	0.000154	0.000161	0.000166	0.00017	0.000172
in water	0.118	0.126	0.13	0.137	0.145	0.152	0.155	0.16	0.167
